One experiment concerns the target CDK4/D1 (Homo sapiens, UniProt P11802). Nature of the experiment: ADP Glo Kinase assay CDK4/D1. It counts as biochemical. The conditions noted are these: CDK4D1; for Ki: read-out: CDK inhibition, Ki (μM) CDK4D1; for remaining activity at 10 µM: compound at 10 μM, read-out: residual activity (%) at 10 μM CDK4D1. In outline:
(§1)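 Other CDKs and further kinases were profiled externally by radiometric assay. In-house ADP Glo assays covered CDK4/D1 and CDK6/D3 (RB-CTF substrate, pH 7.5 Tris buffer with MgCl2, DTT, BSA) and CDK9/T1 (RBER-IRStide substrate), 40 min at 37° C.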
In general terms: ADP-Glo turns the ADP formed in a reaction into a luminescent signal.

In a further experiment the target is CDK9/T1 (Homo sapiens, UniProt P50750). The experiment is described as follows: ADP Glo Kinase assay CDK9/T1. It counts as biochemical. In outline: as §1
Experiment [1] has as its target T1, CDKs and other kinases (Homo sapiens, UniProt P50613).
T1 construct: other: CDK7H; residual activity (%) at 10 μM CDK7H; compound at 10 μM
Nature of the experiment: Radiometric kinase assay (Eurofins Pharma Discovery or Reaction Biology Corporation Kinase Profiler). The class given is biochemical. In outline: as §1

Experiment [2] concerns the target T2, CDKs and other kinases (Homo sapiens, UniProt P06493).
T2 construct: other: CDK1B; residual activity (%) at 10 μM CDK1B; compound at 10 μM
The description is as above. The class given is biochemical. The conditions noted are these: CDK1B; for Ki: read-out: CDK inhibition, Ki (μM) CDK1B. In outline:
as §1

In experiment [3] the target is T3, CDKs and other kinases (Homo sapiens, UniProt P24941).
T3 construct: other: CDK2A; residual activity (%) at 10 μM CDK2A; compound at 10 μM
Described as above. It counts as biochemical. The conditions noted are these: CDK2A; for Ki: read-out: CDK inhibition, Ki (μM) CDK2A. In outline: as §1

A further experiment has as its target CDK6/D3 (Homo sapiens, UniProt Q00534). The experiment is described as follows: ADP Glo Kinase assay CDK6/D3. The conditions noted are these: CDK6D3; for remaining activity at 10 µM: compound at 10 μM, read-out: residual activity (%) at 10 μM CDK6D3. It counts as biochemical. The protocol: Eurofins Pharma Discovery or Reaction Biology Corporation Kinase Profiler services were used to measure inhibition of CDKs and other kinases by radiometric assay. Inhibition of CDK4/D1, CDK6/D3 and CDK9/T1 were also determined in-house using ADP Glo Kinase assays (Promega Corporation, Madison, USA). Briefly, the kinase reaction for CDK4/D1 and CDK6/D3 was performed with kinase reaction buffer ([…] Tris base pH 7.5, 20 mM MgCl2, 0.4 mM DTT), 0.1 mg/ml BSA and RB-CTF substrate (retinoblastoma protein 1 C-terminal fraction). For CDK9/CyclinT1, the kinase reaction was performed with standard assay buffer and Kinase Dilution Buffer and RBER-IRStide substrate. Serial dilutions of 1:3 were prepared for test compounds for 10 concentrations (from 10 μM to 0.5 nM). The kinase reactions were started by addition of ATP, incubated for 40 min at 37° C. and then stopped by adding 10 μL of ADP Glo reagent. After incubation at room temperature in the dark for 40 min, 20 μL of kinase detection reagent was added per well and incubated for 40 min. Luminescence was measured using an EnVision Multilabel plate reader (PerkinElmer, Buckinghamshire, UK). Positive and negative controls were performed in the presence and absence of CDK kinases, respectively. Half-maximal inhibition (IC50) values were calculated using a 4-parameter logistic non-linear regression model with Graphpad prism (Version 6.0). Apparent inhibition constants (Ki) values were calculated from Km (ATP) and IC50 values for the respective kinases.

The next experiment has as its system leukemia cell lines. The experiment is described as follows: Resazurin cell viability assay on leukemia cell lines (72 h growth inhibition, GI50). It counts as cell-based. Conditions: Homo sapiens, MV4-11 cells. In outline: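 Standard published viability protocols apply here, MTT-based for solid tumour cells and resazurin-based for leukaemia cells, with 50% growth inhibition concentrations derived through non-linear regression.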
On the technique in general: The colour change of resazurin is a common sign of viable cells or microbes.

Setting [4] is: CDK9T1, read-out: CDK inhibition, Ki (μM) CDK9T1.
The mark [5] stands for this setting: CDK7H, read-out: CDK inhibition, Ki (μM) CDK7H.

Where two headings read alike, the source gives them in different places. A value given as a limit tells only on which side of the number the result lay.

Chain of CDK4/D1 (P11802 whole entry): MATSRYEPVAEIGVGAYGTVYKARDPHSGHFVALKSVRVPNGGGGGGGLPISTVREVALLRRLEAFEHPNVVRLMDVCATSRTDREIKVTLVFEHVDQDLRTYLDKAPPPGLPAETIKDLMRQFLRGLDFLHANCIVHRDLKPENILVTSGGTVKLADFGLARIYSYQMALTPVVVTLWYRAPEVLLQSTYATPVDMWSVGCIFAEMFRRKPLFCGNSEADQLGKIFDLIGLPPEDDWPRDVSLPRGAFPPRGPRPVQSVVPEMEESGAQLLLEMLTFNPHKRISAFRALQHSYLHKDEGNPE
Chain of CDK4/D1 (P24385 whole entry partner): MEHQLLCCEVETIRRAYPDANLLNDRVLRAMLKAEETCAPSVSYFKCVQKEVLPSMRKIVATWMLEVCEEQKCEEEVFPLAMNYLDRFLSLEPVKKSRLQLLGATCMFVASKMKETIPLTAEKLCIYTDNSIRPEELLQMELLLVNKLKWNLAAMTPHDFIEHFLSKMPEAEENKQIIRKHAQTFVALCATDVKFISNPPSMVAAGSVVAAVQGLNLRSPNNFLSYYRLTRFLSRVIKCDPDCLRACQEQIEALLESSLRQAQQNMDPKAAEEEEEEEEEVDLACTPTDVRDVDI
Chain of CDK9/T1 (P50750 whole entry): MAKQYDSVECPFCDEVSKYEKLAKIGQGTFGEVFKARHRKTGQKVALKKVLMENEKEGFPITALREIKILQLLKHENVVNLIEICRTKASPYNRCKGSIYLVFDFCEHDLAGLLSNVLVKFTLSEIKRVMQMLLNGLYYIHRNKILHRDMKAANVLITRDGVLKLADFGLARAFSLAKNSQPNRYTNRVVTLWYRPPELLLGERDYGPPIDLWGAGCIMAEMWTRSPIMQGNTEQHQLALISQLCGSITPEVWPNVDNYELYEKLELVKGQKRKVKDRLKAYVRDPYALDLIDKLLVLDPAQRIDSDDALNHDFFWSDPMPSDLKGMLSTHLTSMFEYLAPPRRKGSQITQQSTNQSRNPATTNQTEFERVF
Chain of CDK9/T1 (O60563 whole entry partner): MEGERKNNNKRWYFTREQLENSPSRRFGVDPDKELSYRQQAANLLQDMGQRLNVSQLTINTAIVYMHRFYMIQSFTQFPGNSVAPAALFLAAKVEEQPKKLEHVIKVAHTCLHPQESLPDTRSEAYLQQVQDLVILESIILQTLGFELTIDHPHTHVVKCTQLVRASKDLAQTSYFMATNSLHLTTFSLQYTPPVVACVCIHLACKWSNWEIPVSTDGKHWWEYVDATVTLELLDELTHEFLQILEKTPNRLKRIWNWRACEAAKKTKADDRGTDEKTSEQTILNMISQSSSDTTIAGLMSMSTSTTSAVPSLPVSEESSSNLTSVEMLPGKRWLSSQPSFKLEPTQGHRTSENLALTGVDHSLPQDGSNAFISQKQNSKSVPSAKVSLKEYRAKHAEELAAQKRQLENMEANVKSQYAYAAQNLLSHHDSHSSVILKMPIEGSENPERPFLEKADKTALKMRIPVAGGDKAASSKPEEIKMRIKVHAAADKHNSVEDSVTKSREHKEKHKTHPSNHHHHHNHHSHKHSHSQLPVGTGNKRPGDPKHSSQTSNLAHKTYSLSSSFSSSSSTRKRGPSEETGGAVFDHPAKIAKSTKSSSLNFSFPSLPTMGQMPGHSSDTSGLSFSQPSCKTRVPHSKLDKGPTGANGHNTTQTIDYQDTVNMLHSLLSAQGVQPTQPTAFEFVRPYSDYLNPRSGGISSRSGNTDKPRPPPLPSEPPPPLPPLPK
T2 sequence (P06493 whole entry): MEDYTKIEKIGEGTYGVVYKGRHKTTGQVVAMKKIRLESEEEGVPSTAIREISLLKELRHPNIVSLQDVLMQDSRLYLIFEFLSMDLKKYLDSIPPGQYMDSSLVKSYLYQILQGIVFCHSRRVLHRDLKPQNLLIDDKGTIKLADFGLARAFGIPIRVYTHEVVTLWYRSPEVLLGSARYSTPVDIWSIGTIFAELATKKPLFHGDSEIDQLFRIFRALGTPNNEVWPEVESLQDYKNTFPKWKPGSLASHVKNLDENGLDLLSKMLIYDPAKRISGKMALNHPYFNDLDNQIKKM
Chain of CDK6/D3 (Q00534 whole entry): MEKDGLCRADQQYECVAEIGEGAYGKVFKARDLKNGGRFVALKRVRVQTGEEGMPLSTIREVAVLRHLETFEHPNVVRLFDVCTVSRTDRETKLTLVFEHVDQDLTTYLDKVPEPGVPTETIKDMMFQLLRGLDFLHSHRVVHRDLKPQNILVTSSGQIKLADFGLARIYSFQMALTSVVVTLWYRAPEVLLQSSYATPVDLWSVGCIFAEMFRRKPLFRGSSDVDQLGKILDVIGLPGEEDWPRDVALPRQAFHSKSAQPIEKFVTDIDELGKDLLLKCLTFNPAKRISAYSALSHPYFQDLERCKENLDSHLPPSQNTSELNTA
Chain of CDK6/D3 (P30281 whole entry partner): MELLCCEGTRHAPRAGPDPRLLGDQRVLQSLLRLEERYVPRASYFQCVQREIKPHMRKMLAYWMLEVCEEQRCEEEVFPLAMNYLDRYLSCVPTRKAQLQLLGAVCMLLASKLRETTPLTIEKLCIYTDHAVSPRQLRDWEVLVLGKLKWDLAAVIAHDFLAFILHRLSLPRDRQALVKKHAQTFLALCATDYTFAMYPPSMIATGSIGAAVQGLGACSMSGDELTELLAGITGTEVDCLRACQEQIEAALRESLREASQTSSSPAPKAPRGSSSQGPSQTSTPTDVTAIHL
T1 sequence (P50613 whole entry): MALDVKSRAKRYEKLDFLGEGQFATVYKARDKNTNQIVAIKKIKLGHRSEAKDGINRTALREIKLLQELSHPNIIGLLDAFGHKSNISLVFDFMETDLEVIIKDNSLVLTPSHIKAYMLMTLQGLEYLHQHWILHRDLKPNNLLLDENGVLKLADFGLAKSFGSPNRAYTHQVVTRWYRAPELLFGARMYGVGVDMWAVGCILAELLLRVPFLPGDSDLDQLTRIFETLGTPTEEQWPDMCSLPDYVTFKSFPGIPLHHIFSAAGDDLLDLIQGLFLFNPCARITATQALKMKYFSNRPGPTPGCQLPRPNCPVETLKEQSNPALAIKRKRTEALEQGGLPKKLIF

The term Ki denotes a dissociation constant, usually derived from enzyme kinetics or from competition with a known ligand. By GI50 is commonly meant the concentration giving 50% growth inhibition. Regarding `N[C@H]1CC[C@H](Nc2ncc(F)c(-c3cnc4ccccn34)n2)CC1` [Compound 1, (1r,4r)-N^1-(5-Fluoro-4-(imidazo[1,2-a]pyridin-3-yl)pyrimidin-2-yl)cyclohexane-1,4-diamine], the Ki was 0.025 µM on CDK4/D1; 0.006 µM on CDK9/T1 (setting [4]); 0.026 µM on CDKs and other kinases [1] (setting [5]); 0.077 µM at CDKs and other kinases [2]; 0.018 µM at CDKs and other kinases [3]. Also, the remaining activity at 10 µM at CDK6/D3 was 23%. Also, the 50% growth inhibitory concentration (GI50) in the experiment on leukemia cell lines was 0.046 ± 0.005 µM.
In the case of `N[C@H]1CC[C@H](Nc2ncc(F)c(-c3cnc4ccc(F)cn34)n2)CC1` [Compound 2, (1r,4r)-N^1-(5-Fluoro-4-(6-fluoroimidazo[1,2-a]pyridin-3-yl)pyrimidin-2-yl)cyclohexane-1,4-diamine], the Ki amounted to 0.005 µM on CDK9/T1 (setting [4]); 0.034 µM on CDKs and other kinases [1] (setting [5]); 0.085 µM on CDKs and other kinases [2]; 0.012 µM at CDKs and other kinases [3]. In addition, on CDK6/D3, the remaining activity at 10 µM was determined as 5%. This molecule also displayed a GI50 in the experiment on leukemia cell lines of 0.006 ± 0.001 µM.
Consider `N[C@H]1CC[C@H](Nc2ncc(F)c(-c3cnc4ccc(C(F)(F)F)cn34)n2)CC1` [Compound 3, (1r,4r)-N^1-(5-Fluoro-4-(6-(trifluoromethyl)imidazo[1,2-a]pyridin-3-yl)pyrimidin-2-yl)cyclohexane-1,4-diamine], for which the remaining activity at 10 µM was found to be 0% at CDK4/D1 and 46% at CDK6/D3. Moreover, the Ki at CDK9/T1 (setting [4]) was 0.006 µM; at CDKs and other kinases [1] (setting [5]) it was 0.019 µM; at CDKs and other kinases [2] it was 0.084 µM; on CDKs and other kinases [3], 0.023 µM. Besides, the GI50 with leukemia cell lines was less than 0.001 µM.
Regarding `Cc1ccc2ncc(-c3nc(N[C@H]4CC[C@H](N)CC4)ncc3F)n2c1` [Compound 4, (1r,4r)-N^1-(5-Fluoro-4-(6-methylimidazo[1,2-a]pyridin-3-yl)pyrimidin-2-yl)cyclohexane-1,4-diamine], the remaining activity at 10 µM on CDK4/D1 came to 0%; on CDKs and other kinases [2] (compound at 10 μM, read-out: residual activity (%) at 10 μM CDK1B), 1%; at CDKs and other kinases [3] (compound at 10 μM, read-out: residual activity (%) at 10 μM CDK2A) it was 2%; on CDK6/D3, 2%. For the same molecule, on CDK9/T1 (setting [4]), the Ki was 0.003 µM. The GI50 in the experiment with leukemia cell lines is 0.004 ± 0.001 µM.
Consider `N[C@H]1CC[C@H](Nc2ncc(F)c(-c3cnc4ccc(-c5ccccc5)cn34)n2)CC1` [Compound 5, (1r,4r)-N^1-(5-Fluoro-4-(6-phenylimidazo[1,2-a]pyridin-3-yl)pyrimidin-2-yl)cyclohexane-1,4-diamine], for which the remaining activity at 10 µM turned out to be 0% on CDK4/D1 and 16% at CDK6/D3. Further, the Ki on CDK9/T1 (setting [4]) came out at 0.002 µM; on CDKs and other kinases [1] (setting [5]), 0.075 µM; at CDKs and other kinases [2], 0.014 µM; at CDKs and other kinases [3] it was 0.006 µM. Halving of growth in the experiment on leukemia cell lines (GI50) required 0.003 ± 0.001 µM.
With `N[C@H]1CC[C@H](Nc2ncc(F)c(-c3cnc4ccc(Nc5ccccc5)cn34)n2)CC1` [Compound 6, (1r,4r)-N^1-(5-Fluoro-4-(6-(phenylamino)imidazo[1,2-a]pyridin-3-yl)pyrimidin-2-yl)cyclohexane-1,4-diamine], the remaining activity at 10 µM amounted to 11% on CDK4/D1 and 16% on CDK6/D3. For the same molecule, the Ki on CDK9/T1 (setting [4]) was 0.003 µM; on CDKs and other kinases [1] (setting [5]), 0.016 µM; on CDKs and other kinases [2] it was 0.013 µM; at CDKs and other kinases [3] it was 0.009 µM. Also, the GI50 in the experiment on leukemia cell lines is 0.002 ± 0.0005 µM.
In the case of `CS(=O)(=O)N[C@H]1CC[C@H](Nc2ncc(F)c(-c3cnc4ccccn34)n2)CC1` [Compound 16, N-((1r,4r)-4-((5-Fluoro-4-(imidazo[1,2-a]pyridin-3-yl)pyrimidin-2-yl)amino)cyclohexyl)methanesulfonamide], the Ki at CDK9/T1 (setting [4]) turned out to be 0.029 µM; at CDKs and other kinases [3], 0.001 µM. Besides, the remaining activity at 10 µM on CDKs and other kinases [1] (CDK7H, compound at 10 μM, read-out: residual activity (%) at 10 μM CDK7H) was 50%; at CDK6/D3, 32%. For the same molecule, in the experiment on leukemia cell lines, halving of growth (GI50) required 0.01 ± 0.001 µM.
Turning to `N[C@H]1CC[C@H](Nc2ncc(-c3ccccc3)c(-c3cnc4ccc(-c5ccccc5)cn34)n2)CC1` [Compound 80, (1r,4r)-N^1-(5-Phenyl-4-(6-phenylimidazo[1,2-a]pyridin-3-yl)pyrimidin-2-yl)cyclohexane-1,4-diamine], the remaining activity at 10 µM is 61% on CDK4/D1 and 54% at CDK6/D3. The inhibition constant (Ki) at CDK9/T1 (setting [4]) worked out at 0.2 µM. Growth in the experiment on leukemia cell lines was halved (GI50) at 0.243 ± 0.053 µM.
For `Cc1cnc(N[C@H]2CC[C@H](N)CC2)nc1-c1cnc2ccc(Nc3ccncn3)cn12` [Compound 116, (1r,4r)-N^1-(5-Methyl-4-(6-(pyrimidin-4-ylamino)imidazo [1,2-a]pyridin-3-yl)pyrimidin-2-yl)cyclohexane-1,4-diamine], in that order: 18%, 86%, 0.106 µM and 0.885 ± 0.137 µM.
Turning to `N[C@H]1CC[C@H](Nc2ncc(Cl)c(-c3cnc4cc(Nc5cncnc5)ccn34)n2)CC1` [Compound 118, (1r,4r)-N^1-(5-Chloro-4-(7-(pyrimidin-5-ylamino)imidazo [1,2-a]pyridin-3-yl)pyrimidin-2-yl)cyclohexane-1,4-diamine], the results for the remaining activity at 10 µM at CDK4/D1 and at CDK6/D3 were 0% and 6%, respectively. The Ki was found to be 0.036 µM at CDK9/T1 (setting [4]); 0.018 µM on CDKs and other kinases [1] (setting [5]); 0.154 µM on CDKs and other kinases [2]; 0.026 µM on CDKs and other kinases [3].
Take `Cc1cnc(N[C@H]2CC[C@H](N3CC3)CC2)nc1-c1cnc2cc(Nc3cncnc3)ccn12` [Compound 119, 3-(2-(((1r,4r)-4-(Aziridin-1-yl)cyclohexyl)amino)-5-methylpyrimidin-4-yl)-N-(pyrimidin-5-yl)imidazo[1,2-a] pyridin-7-amine]: the Ki on CDK4/D1 was found to be 0.64 µM; on CDK9/T1, 0.004 µM; on CDKs and other kinases [1] it was 0.12 µM; on CDKs and other kinases [2] it was 0.623 µM; at CDKs and other kinases [3], 0.14 µM; on CDK6/D3 (read-out: CDK inhibition, Ki (μM) CDK6D3), 0.54 µM.
Take `Cc1cnc(N[C@H]2CC[C@H](NC(C)C)CC2)nc1-c1cnc2ccc(Nc3cncnc3)cn12` [Compound 121, (1r,4r)-N^1-Isopropyl-N^4-(5-methyl-4-(6-(pyrimidin-5-ylamino)imidazo[1,2-a]pyridin-3-yl)pyrimidin-2-yl) cyclohexane-1,4-diamine]: the Ki at CDK4/D1 was 2.21 µM; on CDK9/T1 (setting [4]), 0.032 µM; at CDKs and other kinases [1] (setting [5]), 3.86 µM; at CDKs and other kinases [2], 0.78 µM; on CDKs and other kinases [3] it was 0.86 µM. For the same molecule, at CDK6/D3, the remaining activity at 10 µM worked out at 47%.
In the case of `Cc1cnc(N[C@H]2CC[C@H](N)CC2)nc1-c1cnc2ccc(N(C)c3cccnc3)cn12` [Compound 122, (1r,4r)-N^1-(5-Methyl-4-(6-(methyl(pyridin-3-yl)amino)imidazo[1,2-a]pyridin-3-yl)pyrimidin-2-yl)cyclohexane-1,4-diamine], the remaining activity at 10 µM was found to be 71% at CDK4/D1 and 44% on CDK6/D3. For the same molecule, the Ki at CDK9/T1 (setting [4]) was determined as 0.3 µM; on CDKs and other kinases [1] (setting [5]), 1.16 µM; at CDKs and other kinases [2] it was 1.71 µM; at CDKs and other kinases [3] it was 1.15 µM.
As to `Cc1cnc(N2CCC3(CCNC3=O)CC2)nc1-c1cnc2ccc(-c3ccccc3)cn12` [Compound 125, 8-(5-Methyl-4-(6-phenylimidazo[1,2-a]pyridin-3-yl)pyrimidin-2-yl)-2,8-diazaspiro[4.5]decan-1-one], the values for the remaining activity at 10 µM on CDK4/D1 and on CDK6/D3 were 100% and 92%, respectively. Besides, the Ki at CDK9/T1 (setting [4]) was 2.88 µM; on CDKs and other kinases [1] (setting [5]), 4.56 µM; on CDKs and other kinases [2], greater than 5 µM; at CDKs and other kinases [3] it was 3.94 µM.

The values are drawn from patent US11111245B2, “Derivatives of N-cycloalkyl/heterocycloalkyl-4-(imidazo[1,2-a]pyridine)pyrimidin-2-amine as therapeutic agents” (Aucentra Therapeutics Pty Ltd, priority 2017, dated 2021).
